Measurements taken from ChEMBL document CHEMBL1201862, “PubChem BioAssay data set” (2004).
Calls of active or inactive are those of the source.

Experiments:
Streptococcus = experiment: Group A Streptococcus viability loss, dose response, counter-screen for streptokinase expression inhibitor project, luminescence, BacTiterGlo (AID 1915); format: functional, organism-based;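 further: potency for reduction of bacterial viability or growth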
Beta-galactosidase = Beta-galactosidase (Escherichia coli, UniProt Q8VNN2); experiment: beta-galactosidase enzyme inhibitors and activators, dose response, artefact control for CCR6 antagonist project, biochemical, E. coli enzyme, set 3 (AID 504712); format: functional
[1] = test system: Streptococcus sp. 'group A'; experiment: growth inhibition of control SK(-) GAS strain, dose response, counter-screen for streptokinase expression inhibitor project, luminescence, kanamycin, BacTiterGlo, confirmation (AID 1900); format: functional, organism-based
[2] = A cytotoxicity screen of small molecule inhibitors of the PhoP region in Salmonella typhi identified in the primary screen. [Related pubchem assays: 1850, 1864, 1985 ]; format: functional
[3] = target: T1, Rac GTPase-activating protein 1 (Homo sapiens, UniProt Q9H0H5); experiment: MgcRacGAP GTPase-activating activity inhibitors, confirmation, biochemical, ADP Hunter fluorescence, primary and confirmatory (AID 624330); format: functional
T1 sequence (Q9H0H5 whole entry): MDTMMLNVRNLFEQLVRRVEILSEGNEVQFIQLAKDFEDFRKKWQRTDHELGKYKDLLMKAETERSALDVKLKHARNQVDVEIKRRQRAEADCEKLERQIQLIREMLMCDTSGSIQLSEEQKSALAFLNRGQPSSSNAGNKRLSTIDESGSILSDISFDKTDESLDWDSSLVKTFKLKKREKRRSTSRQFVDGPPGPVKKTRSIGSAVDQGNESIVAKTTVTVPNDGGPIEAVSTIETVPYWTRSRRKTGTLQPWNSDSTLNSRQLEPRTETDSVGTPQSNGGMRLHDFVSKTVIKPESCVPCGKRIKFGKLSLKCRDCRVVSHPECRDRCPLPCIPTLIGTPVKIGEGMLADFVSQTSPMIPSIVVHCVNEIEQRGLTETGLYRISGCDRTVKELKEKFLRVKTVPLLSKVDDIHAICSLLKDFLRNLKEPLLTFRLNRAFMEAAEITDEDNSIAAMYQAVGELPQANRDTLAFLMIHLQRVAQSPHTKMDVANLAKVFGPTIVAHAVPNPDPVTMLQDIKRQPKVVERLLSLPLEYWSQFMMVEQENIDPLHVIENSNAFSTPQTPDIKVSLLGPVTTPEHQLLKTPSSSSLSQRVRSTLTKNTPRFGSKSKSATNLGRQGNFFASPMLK

[4] = target: DNA dC->dU-editing enzyme APOBEC-3A (Homo sapiens, UniProt P31941); experiment: APOBEC3A DNA deaminase inhibitors, dose response, biochemical (AID 504722); format: functional
[5] = target: DNA dC->dU-editing enzyme APOBEC-3G (Homo sapiens, UniProt Q9HC16); experiment: Dose Response confirmation of small molecule APOBEC3G DNA Deaminase Inhibitors via a fluorescence-based single-stranded DNA deaminase assay. [Related pubchem assays (depositor defined):AID493012, AID493028]; format: functional
[6] = target: T2, Eukaryotic translation initiation factor 2-alpha kinase 3 (Homo sapiens, UniProt Q9NZJ5); experiment: Dose response cell-based high-throughput screening assay to measure PERK inhibition. [Related pubchem assays: 1416 ]; format: functional
T2 sequence (Q9NZJ5 whole entry): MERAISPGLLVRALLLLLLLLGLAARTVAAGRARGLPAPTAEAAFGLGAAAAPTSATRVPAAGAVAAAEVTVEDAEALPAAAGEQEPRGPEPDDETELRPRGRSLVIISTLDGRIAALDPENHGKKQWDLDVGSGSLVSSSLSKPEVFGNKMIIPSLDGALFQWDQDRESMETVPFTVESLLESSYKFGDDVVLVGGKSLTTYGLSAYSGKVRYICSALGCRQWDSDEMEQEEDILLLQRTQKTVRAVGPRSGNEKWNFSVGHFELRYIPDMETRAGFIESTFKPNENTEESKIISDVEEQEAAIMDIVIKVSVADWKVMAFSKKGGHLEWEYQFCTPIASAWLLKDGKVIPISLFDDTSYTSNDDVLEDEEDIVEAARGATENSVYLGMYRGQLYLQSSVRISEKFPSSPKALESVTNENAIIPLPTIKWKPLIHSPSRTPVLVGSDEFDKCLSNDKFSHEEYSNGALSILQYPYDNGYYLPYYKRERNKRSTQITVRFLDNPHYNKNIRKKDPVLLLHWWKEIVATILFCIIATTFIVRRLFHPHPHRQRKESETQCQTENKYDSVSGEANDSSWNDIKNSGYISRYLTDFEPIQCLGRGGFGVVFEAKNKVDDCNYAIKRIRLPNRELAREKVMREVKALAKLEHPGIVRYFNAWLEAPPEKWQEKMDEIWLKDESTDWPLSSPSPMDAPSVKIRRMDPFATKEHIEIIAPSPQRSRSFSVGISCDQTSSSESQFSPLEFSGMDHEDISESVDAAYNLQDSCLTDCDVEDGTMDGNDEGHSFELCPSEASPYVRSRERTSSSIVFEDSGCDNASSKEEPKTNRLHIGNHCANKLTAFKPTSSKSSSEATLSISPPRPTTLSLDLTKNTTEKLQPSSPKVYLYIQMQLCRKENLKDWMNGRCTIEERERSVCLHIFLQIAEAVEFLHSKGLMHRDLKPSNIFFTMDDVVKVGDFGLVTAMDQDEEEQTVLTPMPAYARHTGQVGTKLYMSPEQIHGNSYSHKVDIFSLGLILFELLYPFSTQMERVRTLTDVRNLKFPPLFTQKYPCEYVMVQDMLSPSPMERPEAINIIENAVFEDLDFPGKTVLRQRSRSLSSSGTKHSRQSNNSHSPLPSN

[7] = target: T2, Eukaryotic translation initiation factor 2-alpha kinase 3; experiment: Counterscreen assay for PERK inhibitors: Dose response cell-based high throughput screening assay to measure inhibition of PERK at 6 hours. [Related pubchem assays: 1522, 1416 ]; format: functional
[8] = target: Eukaryotic translation initiation factor 4H (Homo sapiens, UniProt Q15056); experiment: human eIF4H binding inhibitors, primary screen, translation initiation inhibitor project, biochemical, uHTS, fluorescence polarization (AID 2012)
[9] = target: Polyadenylate-binding protein 1 (Homo sapiens, UniProt P11940); experiment: PABP poly(A) RNA binding inhibitors, primary screen, biochemical, fluorescence polarization, uHTS (AID 2014)
[10] = target: T3, Carboxy-terminal domain RNA polymerase II polypeptide A small phosphatase 1 (Homo sapiens, UniProt Q9GZU7); experiment: inhibitors of CTDSP1, concentration-response testing, biochemical assay, absorbance-based, actives from ultra-high-throughput screening (AID 540297); format: functional
T3 sequence (Q9GZU7 whole entry): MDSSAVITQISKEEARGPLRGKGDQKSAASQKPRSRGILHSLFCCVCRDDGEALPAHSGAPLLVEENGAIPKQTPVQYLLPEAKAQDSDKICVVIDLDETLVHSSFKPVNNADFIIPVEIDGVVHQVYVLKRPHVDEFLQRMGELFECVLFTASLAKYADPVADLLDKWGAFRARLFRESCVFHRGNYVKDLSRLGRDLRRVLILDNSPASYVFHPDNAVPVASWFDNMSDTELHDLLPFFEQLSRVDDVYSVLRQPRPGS

HEK293 [11] = experiment: cells; format: functional, cell-based; conditions: Homo sapiens
HEK293 [12] = experiment: cells; format: functional, cell-based; conditions: Homo sapiens; remark: listed apart in the source
[13] = target: Nucleotide-binding oligomerization domain-containing protein 2 (Homo sapiens, UniProt Q9HC29); experiment: NOD2 signaling inhibitors, cell-based, luminescence, uHTS, HEK293 (AID 1566); format: functional
HEK293 [14] = experiment: cells; format: functional, cell-based; conditions: Homo sapiens; remark: listed apart in the source
HEK293 [15] = experiment: NOD2 signaling inhibitors in MDP-stimulated cells, cell-based, uHTS, luminescence (AID 2001); format: functional; conditions: Homo sapiens
HEK293 [16] = experiment: NOD1 signaling inhibitors, primary screen, cell-based, luminescence, uHTS (AID 1578); format: functional; conditions: Homo sapiens

Sequence of Nucleotide-binding oligomerization domain-containing protein 2 (Q9HC29 whole entry, the tested form may be a part): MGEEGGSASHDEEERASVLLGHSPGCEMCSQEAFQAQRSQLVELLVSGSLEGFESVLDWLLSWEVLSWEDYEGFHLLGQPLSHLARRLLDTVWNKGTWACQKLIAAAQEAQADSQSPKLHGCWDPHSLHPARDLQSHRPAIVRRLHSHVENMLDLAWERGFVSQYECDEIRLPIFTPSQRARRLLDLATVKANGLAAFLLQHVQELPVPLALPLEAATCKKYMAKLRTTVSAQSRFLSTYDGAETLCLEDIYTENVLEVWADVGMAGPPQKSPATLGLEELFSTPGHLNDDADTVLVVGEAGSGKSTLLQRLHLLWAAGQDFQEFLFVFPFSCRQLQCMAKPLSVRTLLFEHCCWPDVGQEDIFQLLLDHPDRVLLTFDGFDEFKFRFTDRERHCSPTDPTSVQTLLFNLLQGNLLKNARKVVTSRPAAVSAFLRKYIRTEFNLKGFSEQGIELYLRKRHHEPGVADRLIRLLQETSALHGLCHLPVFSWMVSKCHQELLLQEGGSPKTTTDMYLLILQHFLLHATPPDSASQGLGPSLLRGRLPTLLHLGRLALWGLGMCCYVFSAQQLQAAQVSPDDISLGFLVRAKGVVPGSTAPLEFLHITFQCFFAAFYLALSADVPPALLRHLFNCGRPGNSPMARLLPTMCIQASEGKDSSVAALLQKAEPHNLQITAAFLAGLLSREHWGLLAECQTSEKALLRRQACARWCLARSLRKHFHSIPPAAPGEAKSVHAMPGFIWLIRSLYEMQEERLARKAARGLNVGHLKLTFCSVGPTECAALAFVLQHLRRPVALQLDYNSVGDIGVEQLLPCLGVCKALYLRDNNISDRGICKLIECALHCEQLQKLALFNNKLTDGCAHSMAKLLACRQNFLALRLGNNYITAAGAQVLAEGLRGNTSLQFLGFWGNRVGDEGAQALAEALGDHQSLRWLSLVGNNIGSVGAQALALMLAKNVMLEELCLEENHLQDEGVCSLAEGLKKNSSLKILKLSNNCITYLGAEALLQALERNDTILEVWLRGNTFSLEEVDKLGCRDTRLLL
Sequence of DNA dC->dU-editing enzyme APOBEC-3A (P31941 whole entry): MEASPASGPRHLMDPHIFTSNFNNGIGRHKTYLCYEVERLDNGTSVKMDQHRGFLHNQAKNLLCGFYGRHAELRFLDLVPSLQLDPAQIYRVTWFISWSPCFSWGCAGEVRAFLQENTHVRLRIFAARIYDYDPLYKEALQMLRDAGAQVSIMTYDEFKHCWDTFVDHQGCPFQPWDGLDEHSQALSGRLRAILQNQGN
Sequence of Beta-galactosidase (Q8VNN2 whole entry): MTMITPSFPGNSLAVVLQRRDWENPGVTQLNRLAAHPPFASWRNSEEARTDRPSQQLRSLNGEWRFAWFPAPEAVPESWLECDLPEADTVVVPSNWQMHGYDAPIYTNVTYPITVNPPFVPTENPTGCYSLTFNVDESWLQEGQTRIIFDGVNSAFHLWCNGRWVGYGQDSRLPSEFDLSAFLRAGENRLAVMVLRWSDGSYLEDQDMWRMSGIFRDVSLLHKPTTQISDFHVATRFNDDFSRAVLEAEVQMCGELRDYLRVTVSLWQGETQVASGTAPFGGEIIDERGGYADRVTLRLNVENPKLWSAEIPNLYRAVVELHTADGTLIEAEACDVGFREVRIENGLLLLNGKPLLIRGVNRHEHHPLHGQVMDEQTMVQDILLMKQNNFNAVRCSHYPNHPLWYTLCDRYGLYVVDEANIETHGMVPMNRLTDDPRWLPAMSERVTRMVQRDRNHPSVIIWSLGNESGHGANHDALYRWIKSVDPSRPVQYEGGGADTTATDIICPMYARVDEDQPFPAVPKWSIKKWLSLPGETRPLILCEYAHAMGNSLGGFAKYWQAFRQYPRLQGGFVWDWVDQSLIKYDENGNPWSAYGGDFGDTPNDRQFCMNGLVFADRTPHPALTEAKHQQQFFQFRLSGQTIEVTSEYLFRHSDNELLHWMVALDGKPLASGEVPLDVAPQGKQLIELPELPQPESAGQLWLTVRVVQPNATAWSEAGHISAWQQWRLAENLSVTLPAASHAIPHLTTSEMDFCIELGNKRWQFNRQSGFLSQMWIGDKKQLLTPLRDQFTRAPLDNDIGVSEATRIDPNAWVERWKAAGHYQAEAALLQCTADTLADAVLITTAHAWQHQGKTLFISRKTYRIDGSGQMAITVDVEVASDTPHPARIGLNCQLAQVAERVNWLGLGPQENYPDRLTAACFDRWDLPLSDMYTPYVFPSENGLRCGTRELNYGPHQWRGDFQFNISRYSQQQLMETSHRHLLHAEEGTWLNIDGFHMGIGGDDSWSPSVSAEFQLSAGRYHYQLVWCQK
Sequence of Polyadenylate-binding protein 1 (P11940 whole entry, the tested form may be a part): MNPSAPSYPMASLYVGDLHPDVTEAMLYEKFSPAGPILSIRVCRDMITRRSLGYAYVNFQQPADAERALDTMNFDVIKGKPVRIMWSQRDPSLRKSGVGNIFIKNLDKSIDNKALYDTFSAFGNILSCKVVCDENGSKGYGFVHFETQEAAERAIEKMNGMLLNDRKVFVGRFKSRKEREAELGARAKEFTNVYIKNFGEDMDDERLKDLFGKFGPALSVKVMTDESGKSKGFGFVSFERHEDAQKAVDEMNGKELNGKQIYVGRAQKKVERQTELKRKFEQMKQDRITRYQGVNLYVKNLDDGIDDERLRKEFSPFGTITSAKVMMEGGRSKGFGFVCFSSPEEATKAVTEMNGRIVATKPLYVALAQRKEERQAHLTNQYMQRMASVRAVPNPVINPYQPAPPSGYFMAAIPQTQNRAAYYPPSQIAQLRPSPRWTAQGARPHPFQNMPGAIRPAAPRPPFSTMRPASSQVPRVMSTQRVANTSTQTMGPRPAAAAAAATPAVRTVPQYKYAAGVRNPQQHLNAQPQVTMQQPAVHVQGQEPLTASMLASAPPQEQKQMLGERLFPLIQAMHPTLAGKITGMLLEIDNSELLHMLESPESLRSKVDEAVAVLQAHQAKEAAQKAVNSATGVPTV
Sequence of DNA dC->dU-editing enzyme APOBEC-3G (Q9HC16 whole entry): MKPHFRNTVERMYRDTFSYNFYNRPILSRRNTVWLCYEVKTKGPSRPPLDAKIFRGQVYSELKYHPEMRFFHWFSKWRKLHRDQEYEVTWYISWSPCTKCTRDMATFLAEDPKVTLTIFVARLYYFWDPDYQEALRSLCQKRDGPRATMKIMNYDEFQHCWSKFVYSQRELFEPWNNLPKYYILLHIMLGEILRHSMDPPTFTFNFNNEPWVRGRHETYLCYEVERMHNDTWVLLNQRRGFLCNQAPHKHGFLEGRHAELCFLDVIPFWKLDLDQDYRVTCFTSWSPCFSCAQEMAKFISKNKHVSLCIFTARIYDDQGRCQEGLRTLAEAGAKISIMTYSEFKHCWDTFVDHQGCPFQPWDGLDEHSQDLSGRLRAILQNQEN

With `CCN(CC(=O)NC(C)(C)C)C(=O)COc1c(Cl)cc(Cl)c2ccc(C)nc12` the EC50 (Streptococcus) was 6.5 µM (active), the IC50 (Beta-galactosidase) was > 66.6 µM (inactive) and the EC50 [1] was 1.45 µM (active). For the same compound, the EC50 [2] was > 50 µM (active).

With `COc1cccc(/C=N/n2c(S)nnc2-c2[nH]nc3c2CCC3)c1O` the IC50 [3] was 53.9 µM (active), the IC50 [4] was > 100 µM (inactive) and the IC50 [5] was 2.48 µM (active).

With `CCCc1nc2ccccc2c(=O)n1N` the EC50 [6] was > 55.7 µM (not active) and the EC50 [7] was > 55.7 µM (not active).

With `O=S(=O)([O-])CCC[n+]1ccc(Oc2ccccc2)cc1` the IC50 [8] was 48.3 µM (active), the IC50 [9] was 4.32 µM (active) and the IC50 [10] was 12.9 µM (active).

In the case of `CCOc1ccc(-n2c(C)c(C(C)=O)c3cc(O)ccc32)cc1`, the IC50 (HEK293 [11]) was 0.451 µM (active), the IC50 (HEK293 [12]) was > 20 µM (inactive) and the EC50 [13] was > 20 µM (inactive). For the same compound, the IC50 (HEK293 [14]) was > 20 µM (inactive), the IC50 (HEK293 [15]) was 0.875 µM (active) and the EC50 (HEK293 [16]) was > 20 µM (inactive).

For `Cc1ccc2c(c1C)NC(C)CC2C` (stereo unspecified), the EC50 [6] was > 55.7 µM (not active) and the EC50 [7] was > 55.7 µM (not active).

In the case of `Cc1cc(OCC(=O)Nc2ccncc2)cc(C)c1Cl`, the IC50 (HEK293 [11]) was 4.41 µM (active), the IC50 (HEK293 [12]) was 12.3 µM (active) and the EC50 [13] was 8.48 µM (active). For the same compound, the IC50 (HEK293 [14]) was > 20 µM (inactive), the IC50 (HEK293 [15]) was 6.09 µM (active) and the EC50 (HEK293 [16]) was 2.46 µM (active).
